For assay [1], the system named is CipR MRSA OC3946. As to the kind of experiment: Resistant strains assay (broth microdilution MIC). The assay is classed as cell-based. The settings on record: Staphylococcus aureus, read-out: MIC, Column E. The protocol:
(§1) Compounds of the present invention were tested for activity against susceptible and resistant bacterial strains in vitro, and activity was compared to known anti-bacterial agents. Testing protocols followed NCCLS methodology for broth microdilution assays. MIC values in μg/mL are presented in Table 3 for the following strains: Column A: MSSA ATCC13709 (Smith); Column B: MSSA ATCC 29213; Column C: MRSA OC3726 (COL); Column D: MRSA OC2878.
MIC values in μg/mL are presented in Table 4 for the following strains: Column E: CipR MRSA OC3946; Column F: CipR MRSA OC4159; Column G: CipR MRSA OC4222; Column H: CipR MRSA OC5273.

The subject of assay [2] is CipR MRSA OC5273. Put plainly: Resistant strains assay (broth microdilution MIC). The note with it: Staphylococcus aureus, read-out: MIC, Column H. Type of assay: cell-based. The text has this:
(§2) Testing protocols followed NCCLS methodology for broth microdilution assays.
(Broth dilution looks for growth in wells or tubes with falling amounts of substance.)

Assay [3] concerns CipR MRSA OC4159. As to the kind of experiment: Resistant strains assay (broth microdilution MIC). Type of assay: cell-based. The settings on record: Staphylococcus aureus, read-out: MIC, Column F.
Excerpt: as §2

For assay [4], the system named is CipR MRSA OC4222. Put plainly: Resistant strains assay (broth microdilution MIC). The assay is classed as cell-based. The settings on record: Staphylococcus aureus, read-out: MIC, Column G.
Excerpt: as §2

The test system of assay [5] is MRSA OC2878. As to the kind of experiment: Resistant strains assay (broth microdilution MIC). The assay is classed as cell-based. The note with it: Staphylococcus aureus; MRSA OC2878; read-out: MIC, Column D.
Excerpt: as §2

Assay [6] relates to MRSA OC3726 (COL). As to the kind of experiment: Resistant strains assay (broth microdilution MIC). Type of assay: cell-based. The note with it: Staphylococcus aureus; MRSA OC3726 (COL); read-out: MIC, Column C.
Excerpt: as §2

The target of assay [7] is T1, E. coli DNA gyrase (Escherichia coli, UniProt P0AES4+P0AES6).
T1 construct: purchased John Innes Enterprises Ltd. (John Innes Centre, UK)
T1 sequence (P0AES4 whole entry, one chain of several): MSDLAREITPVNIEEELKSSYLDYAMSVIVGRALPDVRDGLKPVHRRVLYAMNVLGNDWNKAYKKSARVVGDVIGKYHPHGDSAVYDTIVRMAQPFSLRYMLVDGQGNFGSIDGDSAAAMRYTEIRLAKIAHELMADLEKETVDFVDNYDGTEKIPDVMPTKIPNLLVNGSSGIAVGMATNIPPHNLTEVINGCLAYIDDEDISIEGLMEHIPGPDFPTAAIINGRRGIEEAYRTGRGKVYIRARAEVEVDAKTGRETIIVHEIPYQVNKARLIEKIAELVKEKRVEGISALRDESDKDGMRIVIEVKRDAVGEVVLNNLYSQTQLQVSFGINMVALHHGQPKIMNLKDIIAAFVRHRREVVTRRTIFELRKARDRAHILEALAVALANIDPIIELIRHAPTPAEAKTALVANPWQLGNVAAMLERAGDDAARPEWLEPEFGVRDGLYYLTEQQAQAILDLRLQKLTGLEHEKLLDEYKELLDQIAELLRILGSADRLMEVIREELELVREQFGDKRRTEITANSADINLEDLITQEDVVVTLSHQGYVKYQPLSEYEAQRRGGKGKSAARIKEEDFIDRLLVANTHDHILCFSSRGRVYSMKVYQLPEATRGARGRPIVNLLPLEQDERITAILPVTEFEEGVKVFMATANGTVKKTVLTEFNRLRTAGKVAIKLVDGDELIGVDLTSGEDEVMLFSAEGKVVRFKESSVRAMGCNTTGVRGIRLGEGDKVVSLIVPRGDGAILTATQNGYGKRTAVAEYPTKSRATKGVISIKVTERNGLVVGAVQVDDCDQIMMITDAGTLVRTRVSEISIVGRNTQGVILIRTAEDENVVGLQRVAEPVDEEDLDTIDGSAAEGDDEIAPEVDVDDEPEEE
As to the kind of experiment: DNA gyrase inhibition assay (supercoiling). The assay is classed as biochemical. The settings on record: E. coli DNA gyrase supercoiling, visual inspection of gels; read-out: DNA Gyrase IC50 (converted). Summed up:
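Relaxed pBR322 (250 ng) was supercoiled by 0.2 unit gyrase in Tris-HCl pH 7.5, KCl, MgCl2, DTT, spermidine, 1 mM ATP, glycerol, albumin, 0.5% DMSO final, 30 min at 37° C. Products were resolved on 1.0% agarose gels with ethidium bromide staining.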

Assay [8] has as its target T2, E. coli topoisomerase IV (Escherichia coli, UniProt P0AFI2+P20083).
T2 construct: purchased John Innes Enterprises Ltd. (John Innes Centre, UK)
As to the kind of experiment: Topoisomerase IV inhibition assay (relaxation). Type of assay: biochemical. The note with it: E. coli topoisomerase IV relaxation, visual inspection of gels; read-out: Topoisomerase IV IC50 (converted). Put shortly: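 Relaxation of 300 ng supercoiled pBR322 by 0.9 unit enzyme in HEPES-KOH pH 7.6 with potassium glutamate, Mg(OAc)2, DTT, tRNA, 2 mM ATP and BSA; final DMSO 0.5%. Reactions ran 45 min at 37° C. Products resolved on 1.0% agarose gels and stained with ethidium bromide.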

Assay [9] concerns MSSA ATCC13709 (Smith). Put plainly: Resistant strains assay (broth microdilution MIC). Type of assay: cell-based. The settings on record: Staphylococcus aureus. The procedure:
as §1

For assay [10], the system named is MSSA ATCC 29213. As to the kind of experiment: Resistant strains assay (broth microdilution MIC). Type of assay: cell-based. The note with it: Staphylococcus aureus, read-out: MIC, Column B. The protocol: as §1
Assay [11] has as its system S. pneumoniae ATCC49619. Put plainly: In vitro antibacterial activity (MIC assay), broth microdilution. The assay is classed as cell-based. The settings on record: Streptococcus pneumoniae, ATCC49619; read-out: S. pneumoniae ATCC49619 MIC. Summed up:
(§3)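 Broth microdilution per NCCLS M7-A5: 11-point 2-fold compound dilutions from DMSO stocks, inoculum about 5×10^5 CFU/mL, incubation 35° C for 16–24 h. MIC scored visually against no-compound growth controls, in μg/mL.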

Assay [12] relates to E. coli KL-16 (GSC strain 4245). Described as above. The assay is classed as cell-based. The note with it: Escherichia coli. Put shortly:
as §3

Assay [13] relates to S. aureus ATCC13709. Described as above. The assay is classed as cell-based. The note with it: Staphylococcus aureus, ATCC13709; read-out: S. aureus ATCC13709 MIC. Summed up:
as §3

The MIC is the lowest concentration that inhibits growth of the organism. The IC50 is the concentration at which inhibition is half-maximal.

≈ marks a conversion by molar mass, not a printed value. Where two headings read alike, the source gives them in different places.

T2 sequence (P0AFI2 whole entry): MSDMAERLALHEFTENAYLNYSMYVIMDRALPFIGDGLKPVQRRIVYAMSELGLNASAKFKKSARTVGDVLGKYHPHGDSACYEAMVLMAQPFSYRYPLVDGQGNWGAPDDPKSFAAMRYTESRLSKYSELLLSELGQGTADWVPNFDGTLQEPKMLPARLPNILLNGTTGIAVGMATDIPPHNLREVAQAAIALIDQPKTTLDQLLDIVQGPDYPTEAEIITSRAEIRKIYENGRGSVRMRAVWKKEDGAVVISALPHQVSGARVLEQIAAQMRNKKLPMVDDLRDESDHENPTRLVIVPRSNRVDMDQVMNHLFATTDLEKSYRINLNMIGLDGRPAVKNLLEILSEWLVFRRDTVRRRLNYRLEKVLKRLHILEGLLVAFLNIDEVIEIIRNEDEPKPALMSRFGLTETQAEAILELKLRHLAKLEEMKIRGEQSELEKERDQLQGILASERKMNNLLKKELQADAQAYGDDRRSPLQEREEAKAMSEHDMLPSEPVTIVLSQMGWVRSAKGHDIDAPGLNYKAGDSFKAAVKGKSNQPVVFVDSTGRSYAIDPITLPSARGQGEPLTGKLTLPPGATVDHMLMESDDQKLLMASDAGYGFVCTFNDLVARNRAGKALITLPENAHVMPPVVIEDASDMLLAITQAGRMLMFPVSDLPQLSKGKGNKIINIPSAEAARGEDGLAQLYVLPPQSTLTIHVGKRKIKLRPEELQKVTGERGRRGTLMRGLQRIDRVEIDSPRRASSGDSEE
T2 sequence (P20083 whole entry): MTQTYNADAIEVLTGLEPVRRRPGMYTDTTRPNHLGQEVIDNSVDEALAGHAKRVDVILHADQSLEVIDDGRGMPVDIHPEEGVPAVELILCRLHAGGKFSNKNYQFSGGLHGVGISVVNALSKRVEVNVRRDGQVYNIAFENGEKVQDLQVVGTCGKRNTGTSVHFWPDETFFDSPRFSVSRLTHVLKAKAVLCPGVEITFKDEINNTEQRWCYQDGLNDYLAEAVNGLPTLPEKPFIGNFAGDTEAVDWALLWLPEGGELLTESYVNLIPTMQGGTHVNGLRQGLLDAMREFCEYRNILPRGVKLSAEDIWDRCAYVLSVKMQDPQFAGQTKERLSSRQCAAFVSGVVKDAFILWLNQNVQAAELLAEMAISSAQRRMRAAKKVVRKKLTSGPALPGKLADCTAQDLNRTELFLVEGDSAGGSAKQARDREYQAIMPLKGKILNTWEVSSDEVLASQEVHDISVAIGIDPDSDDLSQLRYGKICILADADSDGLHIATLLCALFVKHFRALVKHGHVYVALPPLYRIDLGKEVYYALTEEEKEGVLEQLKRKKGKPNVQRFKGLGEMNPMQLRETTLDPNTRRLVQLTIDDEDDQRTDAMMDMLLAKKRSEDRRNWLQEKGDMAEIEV

On to `COc1ccc2nccc(-n3cc4c(n3)CCC(NCc3ccc5c(c3)NC(=O)CS5)C4)c2c1` (centres unmarked) [Example 52, 6-{[2-(6-Methoxy-quinolin-4-yl)-4,5,6,7-tetrahydro-2H-indazol-5-ylamino]-methyl}-4H-benzo[1,4]thiazin-3-one], for which the MIC in assay [1] (MRSA) is 0.125 µg/mL (≈ 0.265 µM); in assay [2] it was 0.5 µg/mL (≈ 1.06 µM); in [3] it was 0.25 µg/mL (≈ 0.53 µM); in [4] (MRSA) it was 0.125 µg/mL (≈ 0.265 µM); in assay [5], 0.5 µg/mL (≈ 1.06 µM); in assay [6] it was 0.5 µg/mL (≈ 1.06 µM). For the same compound, the MIC in assay [9] was found to be 0.25 µg/mL (≈ 0.53 µM); in assay [10], 1 µg/mL (≈ 2.12 µM); in [11] it was 1 µg/mL (≈ 2.12 µM); in assay [12], 2 µg/mL (≈ 4.24 µM); in assay [13], 0.25 µg/mL (≈ 0.53 µM). Moreover, the IC50 in assay [7] is 265 nM; in [8], 63.6 nM.
Take `COc1ccc2nccc(-n3cc4c(n3)CCC(NC/C=C/c3ccccc3)C4)c2n1` (centres unmarked) [Example 46, [2-(6-Methoxy-[1,5]naphthyridin-4-yl)-4,5,6,7-tetrahydro-2H-indazol-5-yl]-(3-phenyl-allyl)-amine]: the MIC was 0.062 µg/mL (≈ 0.151 µM) in assay [1] (CipR MRSA OC3946); 0.125 µg/mL (≈ 0.304 µM) in assay [2]; 0.062 µg/mL (≈ 0.151 µM) in [3]; 0.062 µg/mL (≈ 0.151 µM) in assay [4] (CipR MRSA OC4222); 0.125 µg/mL (≈ 0.304 µM) in assay [5]; 0.25 µg/mL (≈ 0.608 µM) in [6]. For the same compound, the MIC in [9] was 0.062 µg/mL (≈ 0.151 µM); in assay [10], 8 µg/mL (≈ 19.4 µM); in assay [11] it was under 0.125 µg/mL; in [12] it was 16 µg/mL (≈ 38.9 µM); in [13], 0.06 µg/mL (≈ 0.146 µM). Further, the values for the IC50 in assay [7] and in assay [8] were 292 nM and under 36.5 nM, respectively.
As to `COc1ccc2nccc(-n3cc4c(n3)CCC(NCc3ccc5c(c3)OCCO5)C4)c2c1` (centres unmarked) [Example 50, (2,3-Dihydro-benzo[1,4]dioxin-6-ylmethyl)-[2-(6-methoxy-quinolin-4-yl)-4,5,6,7-tetrahydro-2H-indazol-5-yl]-amine], the minimal inhibitory concentration (MIC) in [1] (CipR MRSA OC3946) was 0.5 µg/mL (≈ 1.13 µM); in [2], 1 µg/mL (≈ 2.26 µM); in assay [3], 16 µg/mL (≈ 36.2 µM); in assay [4] (CipR MRSA OC4222), 16 µg/mL (≈ 36.2 µM); in [5], 0.5 µg/mL (≈ 1.13 µM); in assay [6] it was 1 µg/mL (≈ 2.26 µM). The MIC was determined as 0.5 µg/mL (≈ 1.13 µM) in assay [9]; 16 µg/mL (≈ 36.2 µM) in assay [10]; 1 µg/mL (≈ 2.26 µM) in assay [11]; 128 µg/mL (≈ 289 µM) in [12]; 0.5 µg/mL (≈ 1.13 µM) in [13]. The IC50 in assay [7] is 4520 nM; in assay [8] it was 136 nM.
For the compound `COc1ccc2nccc(-n3cc4c(n3)CCC(NC(=O)c3ccc5c(c3)NC(=O)CS5)C4)c2n1` (centres unmarked) [Example 4, 3-Oxo-3,4-dihydro-2H-benzo[1,4]thiazine-6-carboxylic acid [2-(6-methoxy-[1,5]naphthyridin-4-yl)-4,5,6,7-tetrahydro-2H-indazol-5-yl]-amide], the MIC in assay [1] (CipR MRSA OC3946) was 0.007 µg/mL (≈ 0.0144 µM); in assay [2], 0.062 µg/mL (≈ 0.127 µM); in assay [3], 0.5 µg/mL (≈ 1.03 µM); in [4] (CipR MRSA OC4222), 0.5 µg/mL (≈ 1.03 µM); in assay [5] it was 0.031 µg/mL (≈ 0.0637 µM); in assay [6], 0.062 µg/mL (≈ 0.127 µM). For the same compound, the MIC was 0.06 µg/mL (≈ 0.123 µM) in assay [9]; 1 µg/mL (≈ 2.06 µM) in assay [10]; 4 µg/mL (≈ 8.22 µM) in [11]; over 128 µg/mL in assay [12]; 0.06 µg/mL (≈ 0.123 µM) in assay [13]. Moreover, the IC50 in assay [7] and in assay [8] was 514 nM in each case.
For `O=C1CSc2ccc(C(=O)NC3CCc4nn(-c5cccc6cccnc56)cc4C3)cc2N1` (centres unmarked) [Example 31, 3-Oxo-3,4-dihydro-2H-benzo[1,4]thiazine-6-carboxylic acid (2-quinolin-8-yl-4,5,6,7-tetrahydro-2H-indazol-5-yl)-amide], the MIC came to 0.125 µg/mL (≈ 0.274 µM) in assay [1] (MRSA); 0.5 µg/mL (≈ 1.1 µM) in assay [2]; 4 µg/mL (≈ 8.78 µM) in assay [3]; 4 µg/mL (≈ 8.78 µM) in assay [4] (CipR MRSA OC4222); 0.25 µg/mL (≈ 0.549 µM) in assay [5]; 0.5 µg/mL (≈ 1.1 µM) in assay [6]. Further, the MIC was determined as 0.25 µg/mL (≈ 0.549 µM) in assay [9]; 16 µg/mL (≈ 35.1 µM) in [10]; 4 µg/mL (≈ 8.78 µM) in assay [11]; 16 µg/mL (≈ 35.1 µM) in assay [12]; 0.25 µg/mL (≈ 0.549 µM) in assay [13]. Besides, the values for the IC50 in assay [7] and in [8] were 4390 nM and 274 nM, respectively.

(Values after patent publication US8242275B2, “Bicyclic pyrazole compounds as antibacterial agents” (Janssen Pharmaceutica NV, priority 2005, dated 2012).)
